Assay in all cases: relative viability (nuclei count vs DMSO), 5 days (fraction); higher = more cells survive
Compound in the assay “Afatinib + Navitoclax”: CN(C)C/C=C/C(=O)Nc1cc2c(Nc3ccc(F)c(Cl)c3)ncnc2cc1O[C@H]1CCOC1 [Afatinib] + CC1(C)CCC(c2ccc(Cl)cc2)=C(CN2CCN(c3ccc(C(=O)NS(=O)(=O)c4ccc(N[C@H](CCN5CCOCC5)CSc5ccccc5)c(S(=O)(=O)C(F)(F)F)c4)cc3)CC2)C1 [Navitoclax] (partner 0.5 µM)
The method, boiled down:
(§1)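 For relative viability, nuclei counts in treated wells were divided by those in vehicle wells. Lung cancer cell lines had been pin-tool dosed in 1536-well plates the day after seeding and cultured for 5 days, then fixed and stained in one step (final 0.05% Triton X-100, 1% formaldehyde, 1 ug/ml Hoechst) and imaged at 4×. Doses were one drug alone or a fixed anchor-drug dose plus five library-drug doses (not always all listed) in √10 steps, and values are duplicate-plate medians.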

Compound in the assay “Afatinib + Trametinib”: CN(C)C/C=C/C(=O)Nc1cc2c(Nc3ccc(F)c(Cl)c3)ncnc2cc1O[C@H]1CCOC1 [Afatinib] + CC(=O)Nc1cccc(-n2c(=O)n(C3CC3)c(=O)c3c(Nc4ccc(I)cc4F)n(C)c(=O)c(C)c32)c1 [Trametinib] (partner 0.02 µM)
A digest of the protocol:
as §1

Compound in the assay “Afatinib + Phenformin”: CN(C)C/C=C/C(=O)Nc1cc2c(Nc3ccc(F)c(Cl)c3)ncnc2cc1O[C@H]1CCOC1 [Afatinib] + N=C(N)NC(=N)NCCc1ccccc1 [Phenformin] (partner 250 µM)
A digest of the protocol:
as §1

Compound in the assay “Afatinib + Pemetrexed”: CN(C)C/C=C/C(=O)Nc1cc2c(Nc3ccc(F)c(Cl)c3)ncnc2cc1O[C@H]1CCOC1 [Afatinib] + Nc1nc2[nH]cc(CCc3ccc(C(=O)N[C@@H](CCC(=O)O)C(=O)O)cc3)c2c(=O)[nH]1 [Pemetrexed] (partner 0.2 µM)
The method, boiled down:
as §1

As to NCI-H2087, the relative viability was found to be 0.996 in the assay with Afatinib + Navitoclax (first compound 0.005 µM); 0.957 with Afatinib + Navitoclax (first compound 0.01581 µM); 1.11 in the assay with Afatinib + Navitoclax (first compound 0.05 µM); 0.837 with Afatinib + Navitoclax (first compound 0.1581 µM); 0.925 in the assay with Afatinib + Navitoclax (first compound 0.5 µM); 0.223 with Afatinib + Trametinib (first compound 0.005 µM). Further, the relative viability stood at 0.147 with Afatinib + Trametinib (first compound 0.01581 µM); 0.183 in the assay with Afatinib + Trametinib (first compound 0.05 µM); 0.117 in the assay with Afatinib + Trametinib (first compound 0.1581 µM); 0.15 with Afatinib + Trametinib (first compound 0.5 µM); 0.454 with Afatinib + Phenformin (first compound 0.005 µM); 0.475 with Afatinib + Phenformin (first compound 0.01581 µM). The relative viability was 0.446 with Afatinib + Phenformin (first compound 0.05 µM); 0.446 in the assay with Afatinib + Phenformin (first compound 0.1581 µM); 0.373 with Afatinib + Phenformin (first compound 0.5 µM); 0.763 with Afatinib + Pemetrexed (first compound 0.005 µM); 0.668 with Afatinib + Pemetrexed (first compound 0.01581 µM); 0.664 with Afatinib + Pemetrexed (first compound 0.05 µM). In addition, the relative viability in the assay with Afatinib + Pemetrexed (first compound 0.1581 µM) worked out at 0.671; in the assay with Afatinib + Pemetrexed (first compound 0.5 µM) it was 0.652.

In the case of LU99A, the relative viability with Afatinib + Navitoclax (first compound 0.005 µM) stood at 0.859; in the assay with Afatinib + Navitoclax (first compound 0.01581 µM) it was 0.706; in the assay with Afatinib + Navitoclax (first compound 0.05 µM) it was 0.797; with Afatinib + Navitoclax (first compound 0.1581 µM), 0.793; with Afatinib + Navitoclax (first compound 0.5 µM) it was 0.883; in the assay with Afatinib + Trametinib (first compound 0.005 µM), 0.635. Moreover, the relative viability amounted to 0.569 with Afatinib + Trametinib (first compound 0.01581 µM); 0.589 in the assay with Afatinib + Trametinib (first compound 0.05 µM); 0.509 in the assay with Afatinib + Trametinib (first compound 0.1581 µM); 0.552 with Afatinib + Trametinib (first compound 0.5 µM); 0.837 with Afatinib + Phenformin (first compound 0.005 µM); 0.851 with Afatinib + Phenformin (first compound 0.01581 µM). Besides, the relative viability with Afatinib + Phenformin (first compound 0.05 µM) was found to be 0.891; with Afatinib + Phenformin (first compound 0.1581 µM) it was 0.944; with Afatinib + Phenformin (first compound 0.5 µM), 0.828; with Afatinib + Pemetrexed (first compound 0.005 µM), 0.158; with Afatinib + Pemetrexed (first compound 0.01581 µM) it was 0.192; in the assay with Afatinib + Pemetrexed (first compound 0.05 µM), 0.18. The relative viability with Afatinib + Pemetrexed (first compound 0.1581 µM) was 0.206; in the assay with Afatinib + Pemetrexed (first compound 0.5 µM) it was 0.181.

Turning to NCI-H1355, the relative viability was 0.807 with Afatinib + Navitoclax (first compound 0.005 µM); 1.02 with Afatinib + Navitoclax (first compound 0.01581 µM); 0.823 in the assay with Afatinib + Navitoclax (first compound 0.05 µM); 0.764 with Afatinib + Navitoclax (first compound 0.1581 µM); 0.792 with Afatinib + Navitoclax (first compound 0.5 µM); 0.366 with Afatinib + Trametinib (first compound 0.005 µM). Moreover, the relative viability in the assay with Afatinib + Trametinib (first compound 0.01581 µM) was determined as 0.428; with Afatinib + Trametinib (first compound 0.05 µM) it was 0.381; with Afatinib + Trametinib (first compound 0.1581 µM), 0.306; with Afatinib + Trametinib (first compound 0.5 µM), 0.341; with Afatinib + Phenformin (first compound 0.005 µM) it was 0.484; in the assay with Afatinib + Phenformin (first compound 0.01581 µM), 0.491. For the same cell line, the relative viability amounted to 0.482 with Afatinib + Phenformin (first compound 0.05 µM); 0.424 with Afatinib + Phenformin (first compound 0.1581 µM); 0.421 with Afatinib + Phenformin (first compound 0.5 µM); 1.07 in the assay with Afatinib + Pemetrexed (first compound 0.005 µM); 1.01 with Afatinib + Pemetrexed (first compound 0.01581 µM); 0.946 with Afatinib + Pemetrexed (first compound 0.05 µM). Further, the relative viability in the assay with Afatinib + Pemetrexed (first compound 0.1581 µM) stood at 0.906; in the assay with Afatinib + Pemetrexed (first compound 0.5 µM), 0.974.

As for NCI-H520, the relative viability in the assay with Afatinib + Navitoclax (first compound 0.005 µM) was 1.21; with Afatinib + Navitoclax (first compound 0.01581 µM), 1.15; in the assay with Afatinib + Navitoclax (first compound 0.05 µM) it was 1.02; with Afatinib + Navitoclax (first compound 0.1581 µM) it was 1.1; with Afatinib + Navitoclax (first compound 0.5 µM), 1.11; with Afatinib + Trametinib (first compound 0.005 µM), 0.892. For the same cell line, the relative viability with Afatinib + Trametinib (first compound 0.01581 µM) is 0.633; with Afatinib + Trametinib (first compound 0.05 µM), 0.725; in the assay with Afatinib + Trametinib (first compound 0.1581 µM), 0.734; with Afatinib + Trametinib (first compound 0.5 µM), 0.545; in the assay with Afatinib + Phenformin (first compound 0.005 µM) it was 0.562; with Afatinib + Phenformin (first compound 0.01581 µM), 0.593. The relative viability with Afatinib + Phenformin (first compound 0.05 µM) came out at 0.689; in the assay with Afatinib + Phenformin (first compound 0.1581 µM), 0.609; with Afatinib + Phenformin (first compound 0.5 µM), 0.57; with Afatinib + Pemetrexed (first compound 0.005 µM), 0.771; with Afatinib + Pemetrexed (first compound 0.01581 µM), 0.717; in the assay with Afatinib + Pemetrexed (first compound 0.05 µM), 0.749. Besides, the figures for the relative viability with Afatinib + Pemetrexed (first compound 0.1581 µM) and in the assay with Afatinib + Pemetrexed (first compound 0.5 µM) were 0.725 and 0.668, respectively.

With NCI-H661, the relative viability amounted to 0.52 with Afatinib + Trametinib (first compound 0.005 µM); 0.415 in the assay with Afatinib + Trametinib (first compound 0.01581 µM); 0.457 with Afatinib + Trametinib (first compound 0.05 µM); 0.367 with Afatinib + Trametinib (first compound 0.1581 µM); 0.369 in the assay with Afatinib + Trametinib (first compound 0.5 µM); 0.292 with Afatinib + Phenformin (first compound 0.005 µM). Moreover, the relative viability with Afatinib + Phenformin (first compound 0.01581 µM) is 0.255; in the assay with Afatinib + Phenformin (first compound 0.05 µM), 0.253; with Afatinib + Phenformin (first compound 0.1581 µM), 0.247; with Afatinib + Phenformin (first compound 0.5 µM), 0.244; with Afatinib + Pemetrexed (first compound 0.005 µM) it was 0.956; with Afatinib + Pemetrexed (first compound 0.01581 µM), 0.861. The relative viability with Afatinib + Pemetrexed (first compound 0.05 µM) worked out at 0.809; with Afatinib + Pemetrexed (first compound 0.1581 µM), 0.616; with Afatinib + Pemetrexed (first compound 0.5 µM), 0.688.

Turning to NCI-H650, the relative viability amounted to 0.947 in the assay with Afatinib + Trametinib (first compound 0.005 µM); 0.983 in the assay with Afatinib + Trametinib (first compound 0.01581 µM); 0.991 with Afatinib + Trametinib (first compound 0.05 µM); 0.969 with Afatinib + Trametinib (first compound 0.1581 µM); 1.01 with Afatinib + Trametinib (first compound 0.5 µM); 0.498 with Afatinib + Phenformin (first compound 0.005 µM). Besides, the relative viability was found to be 0.46 with Afatinib + Phenformin (first compound 0.01581 µM); 0.446 with Afatinib + Phenformin (first compound 0.05 µM); 0.498 with Afatinib + Phenformin (first compound 0.1581 µM); 0.351 in the assay with Afatinib + Phenformin (first compound 0.5 µM); 0.922 in the assay with Afatinib + Pemetrexed (first compound 0.005 µM); 0.849 with Afatinib + Pemetrexed (first compound 0.01581 µM). For the same cell line, the results for the relative viability in the assay with Afatinib + Pemetrexed (first compound 0.05 µM), with Afatinib + Pemetrexed (first compound 0.1581 µM) and in the assay with Afatinib + Pemetrexed (first compound 0.5 µM) were 0.951, 0.854 and 0.87, respectively.

Take NCI-H647: the relative viability with Afatinib + Navitoclax (first compound 0.005 µM) was determined as 1.09; with Afatinib + Navitoclax (first compound 0.01581 µM) it was 0.951; in the assay with Afatinib + Navitoclax (first compound 0.05 µM), 1.16; in the assay with Afatinib + Navitoclax (first compound 0.1581 µM) it was 1.13; with Afatinib + Navitoclax (first compound 0.5 µM), 1.39; with Afatinib + Trametinib (first compound 0.005 µM), 0.554. Moreover, the relative viability came to 0.465 with Afatinib + Trametinib (first compound 0.01581 µM); 0.451 with Afatinib + Trametinib (first compound 0.05 µM); 0.468 in the assay with Afatinib + Trametinib (first compound 0.1581 µM); 0.438 in the assay with Afatinib + Trametinib (first compound 0.5 µM); 0.664 with Afatinib + Phenformin (first compound 0.005 µM); 0.481 with Afatinib + Phenformin (first compound 0.01581 µM). In addition, the relative viability came out at 0.57 in the assay with Afatinib + Phenformin (first compound 0.05 µM); 0.692 in the assay with Afatinib + Phenformin (first compound 0.1581 µM); 0.445 with Afatinib + Phenformin (first compound 0.5 µM); 0.174 in the assay with Afatinib + Pemetrexed (first compound 0.005 µM); 0.169 with Afatinib + Pemetrexed (first compound 0.01581 µM); 0.179 with Afatinib + Pemetrexed (first compound 0.05 µM). The relative viability was determined as 0.188 with Afatinib + Pemetrexed (first compound 0.1581 µM) and 0.107 with Afatinib + Pemetrexed (first compound 0.5 µM).

In the case of 201T, the relative viability in the assay with Afatinib + Navitoclax (first compound 0.005 µM) turned out to be 1.18; in the assay with Afatinib + Navitoclax (first compound 0.01581 µM), 1.2; in the assay with Afatinib + Navitoclax (first compound 0.05 µM) it was 1.21; in the assay with Afatinib + Navitoclax (first compound 0.1581 µM), 1.15; with Afatinib + Navitoclax (first compound 0.5 µM), 1.23; with Afatinib + Trametinib (first compound 0.005 µM) it was 0.688. Further, the relative viability amounted to 0.709 in the assay with Afatinib + Trametinib (first compound 0.01581 µM); 0.712 with Afatinib + Trametinib (first compound 0.05 µM); 0.673 in the assay with Afatinib + Trametinib (first compound 0.1581 µM); 0.673 with Afatinib + Trametinib (first compound 0.5 µM); 0.475 in the assay with Afatinib + Phenformin (first compound 0.005 µM); 0.444 in the assay with Afatinib + Phenformin (first compound 0.01581 µM). Also, the relative viability was determined as 0.43 with Afatinib + Phenformin (first compound 0.05 µM); 0.398 in the assay with Afatinib + Phenformin (first compound 0.1581 µM); 0.387 with Afatinib + Phenformin (first compound 0.5 µM); 0.294 with Afatinib + Pemetrexed (first compound 0.005 µM); 0.353 in the assay with Afatinib + Pemetrexed (first compound 0.01581 µM); 0.379 with Afatinib + Pemetrexed (first compound 0.05 µM). Also, the relative viability was determined as 0.38 in the assay with Afatinib + Pemetrexed (first compound 0.1581 µM) and 0.31 with Afatinib + Pemetrexed (first compound 0.5 µM).
